According to patent US6359015B1, “Method for antagonizing inhibition effects of alcohol on cell adhesion” (The United States of America as represented by the …, priority 2000, dated 2002):
Entries after “also recorded” stand apart in the source; their conditions may differ. Where two headings read alike, the source gives them in different places.

What was measured:
[1] = tested on: BMP-7 treated NG108-15 neuroblastoma×glioma cells; assay: Cell-cell adhesion (short-term aggregation) assay in BMP-7 treated NG108-15 cells; assay type: cell-based, rat and mouse; settings: for Inhibition of cell-cell adhesion (in words): both cellular systems (NG108-15 + BMP-7 and L1-expressing NIH/3T3)
Protocol: NIH/3T3 cells were cultured in Dulbecco's minimum Eagle medium (DMEM) (Life Technologies, Gaithersburg, Md.) supplemented with 10% normal calf serum (Intergen, Purchase, N.Y.) and 400 μg/ml G418 (Life Technologies). NG108-15 neuroblastoma×glioma cells (passages 21 to 30) were plated in serum-free, defined medium (Reference 16). At the start of the morphogenetic and cell adhesion assays, serum-free medium containing BMP-7 (Creative BioMolecules, Hopkinton, Ma.) (1-40 ng/ml, final) was added daily to the NG108-15 cells. Both cell lines were cultured at 37° C., in an atmosphere of 90% air and 10% CO2. Three NIH/3T3 subclones were utilized in these studies: 2B2-L1, 2A2-L1 and Vec-1A5. The 2B2-L1 and 2A2-L1 cell lines are subclones derived from a stable transfection of NIH/3T3 cells with the human L1 cDNA, and Vec-1A5 is a subclone from a transfection with the empty expression vector (Reference 12).
Cells were cultured and cell adhesion assays were performed in the absence and presence of the alcohols listed below in Table 1. The concentrations of alcohols used in the adhesion assays were calculated to produce membrane concentrations equivalent to 50-100 mM ethanol. Membrane/buffer partition coefficients (Pm/b) were obtained or were calculated from published octanol/water partition coefficients (Reference 15). Molar volumes were obtained from published sources (References 15) or were calculated from molecular weights and densities at 20° C.
(§1) Cell-cell adhesion was measured using a modified short-term aggregation assay of sub-confluent cells (Reference 12). Cells were detached by gentle agitation, mechanically dissociated to obtain a single-cell suspension, and diluted in PBS supplemented with 0.1 mg/ml DNase to 350,000 cells/ml for the NIH/3T3 cells, and 250,000 cells/ml for the NG108-15 cells. One ml of the cell suspension was added per well (4.5 cm^2) of a 12-well plate. After addition of the alcohols, the cells were gently mixed and mechanically shaken for 30 minutes at room temperature on an orbital shaker set at 60 to 80 rpm. Cells were viewed at a final magnification of 200×, and each well was scored for single and adherent cells in five or six microscopic fields of view. We counted approximately 100 cells per field of view and 600 cells per well. The percentage of adherent cells was calculated for each microscopic field of view and averaged. To calculate the magnitude of ethanol inhibition, we subtracted the values for cell adhesion with the Vec-1A5 cells from those of the 2B2-L1 or 2A2-L1 cell lines. Similarly, the values for cell adhesion in NG108-15 cells cultured in serum-free medium were subtracted from those of NG108-15 cells treated with BMP-7.
We tested the effects of a series of alcohols on cell-cell adhesion in two well-characterized model systems. NG108-15 cells were incubated for 48 hours in a serum-free medium supplemented with 10-20 ng/ml BMP-7 to induce L1 and N-CAM gene expression (Reference 10). Parallel experiments were performed using two ethanol-sensitive NIH/3T3 cell lines transfected with human L1 (2B2-L1 and 2A2-L1) (Reference 12) and a NIH/3T3 cell line transfected with the empty expression vector (1A5-V).

[2] = tested on: NIH/3T3-L1 (2B2-L1) cells; assay: Antagonism of 1-butanol inhibition of cell adhesion in NIH/3T3-L1 (2B2-L1) cells; assay type: cell-based, rat
Protocol: as §1, with “BMP-7. […]” for “BMP-7.”

NG108-15 cells = assay: BMP-7 morphogenesis (cell clusters) in NG108-15 cells; assay type: cell-based, rat and mouse; settings: for Antagonism of ethanol inhibition of BMP-7 morphogenesis: 50 mM ethanol and 0.05 mM 1-octanol
Protocol: NG108-15 cells were plated from suspensions of single cells at a density of 50,000 cells/well in poly-D-lysine-coated, 6-well plated containing serum-free medium in the absence or presence of BMP-7, as described (References 17-18). […] Control cultures were treated similarly. The media for all cells was replaced daily following the addition of ethanol. […] A cell cluster was defined as a group of three or more cells that adhered to each other along at least one quarter of their cell bodies (Reference 19). The percentage of cells in clusters was calculated by dividing the number of cells present in clusters by the total number of cells (150 to 200) in each field. Values obtained for each field of a treatment group were then averaged.
Treatment with BMP-7 for 48 hours causes NG108-15 cells to grow in clusters of adherent cells (BMP-7 morphogenesis), rather than as predominantly single cells.
The percentage of cells in clusters of three or more cells was scored from two separate fields viewed under 200×magnification.

[3] = published or calculated from molecular weight and density at 20° C.; cited from earlier work
[4] = tested on: Myeloma cells transfected with L1; settings: References 14 and 21; cited from earlier work
[5] = tested on: insect SF9 cells transfected with L1; settings: References 14 and 21; cited from earlier work
[6] = tested on: BMP-7 treated NG108-15 cells; assay: Antagonism of short-chain alcohol inhibition of cell adhesion in BMP-7 treated NG108-15 cells; assay type: cell-based, rat and mouse
Protocol: as §1

GIRK ¼ potassium channel = target: T1, GIRK ¼ potassium channel (Homo sapiens, UniProt P48544+P48549); settings: Reference 20; cited from earlier work
T1 sequence (P48549 1-501): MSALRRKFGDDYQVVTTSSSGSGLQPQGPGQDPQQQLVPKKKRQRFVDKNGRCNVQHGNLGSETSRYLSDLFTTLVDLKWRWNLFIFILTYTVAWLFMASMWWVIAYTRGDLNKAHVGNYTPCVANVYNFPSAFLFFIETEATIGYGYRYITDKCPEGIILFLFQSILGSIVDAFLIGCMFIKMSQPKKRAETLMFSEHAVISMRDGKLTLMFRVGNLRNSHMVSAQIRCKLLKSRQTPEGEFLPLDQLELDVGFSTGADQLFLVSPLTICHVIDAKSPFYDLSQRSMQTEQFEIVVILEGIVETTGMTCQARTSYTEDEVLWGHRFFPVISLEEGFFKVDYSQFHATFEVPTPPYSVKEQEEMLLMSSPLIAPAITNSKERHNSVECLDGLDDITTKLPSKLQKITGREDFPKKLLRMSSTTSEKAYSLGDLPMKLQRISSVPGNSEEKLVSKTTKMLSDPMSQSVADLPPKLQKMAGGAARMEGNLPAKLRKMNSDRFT
T1 sequence (P48544 1-419): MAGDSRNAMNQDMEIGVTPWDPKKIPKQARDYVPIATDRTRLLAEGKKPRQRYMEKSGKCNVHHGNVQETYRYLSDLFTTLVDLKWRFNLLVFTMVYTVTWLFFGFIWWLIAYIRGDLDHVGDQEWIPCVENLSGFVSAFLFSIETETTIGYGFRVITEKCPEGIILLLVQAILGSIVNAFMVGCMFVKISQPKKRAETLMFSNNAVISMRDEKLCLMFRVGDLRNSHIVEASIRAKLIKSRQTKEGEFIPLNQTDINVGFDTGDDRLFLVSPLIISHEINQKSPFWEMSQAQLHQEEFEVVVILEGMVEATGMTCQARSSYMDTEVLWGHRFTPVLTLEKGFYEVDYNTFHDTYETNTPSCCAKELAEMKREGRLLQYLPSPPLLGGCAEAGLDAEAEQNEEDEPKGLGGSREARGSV

[7] = from published source or octanol/water partition coefficient divided by 5; cited from earlier work

Molecule: 1-butanol
- Inhibition of cell-cell adhesion (in words) [1]: maximally inhibited
- 1-butanol inhibition of cell-cell adhesion, control ([2]; 2B2L1 cells, no 1-octanol pretreatment, washed): 43.6±3.0%

Molecule: CCO [ethanol]
- Inhibition of cell-cell adhesion (in words) [1]: maximally inhibited
- Inhibition of BMP-7 morphogenesis (percentage of cell clusters) (NG108-15 cells; 50 mM ethanol, 3 days, 0.1-40 ng/ml BMP-7): inhibited significantly
- Vm molar volume [3]: 58 mL/mol
- Sensitivity of L1-transfected myeloma cells to ethanol [4]: insensitive
- Sensitivity of L1-transfected insect SF9 cells to ethanol [5]: insensitive

Molecule: CCCCCCCCO [1-octanol]
- Inhibition of cell-cell adhesion (in words) [1]: not inhibited
- Inhibition of cell-cell adhesion at higher concentrations (in words) ([1]; concentrations 5-10 fold higher than those reported in Table 1): inactivity
- Antagonism of inhibition of cell-cell adhesion by 1-butanol (in words) ([6]; 2 mM 1-butanol, BMP-7 treated NG108-15 cells): completely abolished
- Antagonism of the effects of 3-methyl-1-butanol on cell adhesion (in words) ([6]; 3 mM 3-methyl-1-butanol): abolished
- Antagonism of the effects of ethanol on cell adhesion (in words) ([6]; 100 mM ethanol): abolished
- IC50 ([6]; NG108-15, read-out: IC50 for antagonism of 1-butanol (and ethanol) inhibition of cell-cell adhesion): 3.6 µM
- IC50 ([6]; NG108-15, read-out: IC50 for antagonism of 1-butanol inhibition of cell-cell adhesion): 3.6 µM
- Potency of antagonism relative to 1-pentanol ([6]; ratio of IC50 values): approximately 200 times
- Mechanism of antagonism of 1-butanol inhibition (in words) ([2]; 1-octanol 5 and 50 μM, 2B2-L1 cells): complete, reversible, and non-competitive; also recorded: reduced the maximal effectiveness
- Antagonism of ethanol inhibition of BMP-7 morphogenesis (NG108-15 cells; 3 days): antagonized
- Antagonism of ethanol inhibition of BMP-7 morphogenesis (NG108-15 cells; 3 days, listed as Octanol): completely abolished
- Vm molar volume [3]: 158 mL/mol
- Antagonism of ethanol enhancement of GIRK ¼ potassium channel activity (GIRK ¼ potassium channel): did not antagonize
- P(m/b) membrane/buffer partition coefficient [7]: 189

B1: BMP-7: growth factor that induces expression of L1 in neural cells (protein, UniProt P18075 293-431, looked up)
Bone morphogenetic protein 7: STGSKQRSQNRSKTPKNQEALRMANVAENSSSDQRQACKKHELYVSFRDLGWQDWIIAPEGYAAYYCEGECAFPLNSYMNATNHAIVQTLVHFINPETVPKPCCAPTQLNAISVLYFDDSSNVILKKYRNMVVRACGCH
- Percentage of adherent NG108-15 cells ([1]; 48 hours, 10-20 ng/ml BMP-7, control 17.0±[…]): 50.0±1.4%
- Percentage of cell clusters (NG108-15 cells; 0.1-40 ng/ml BMP-7, 3 days): dose-dependent increase
